In PubChem BioAssay AID2060909 (Molecular Pharmacology Branch, DTP, NCI, 2025):

Test system: 362531-283-R-J2-PDC complex spheroid viability
Assay: Anticancer human tumor 362531-283-R-J2-PDC patient-derived colon adenocarcinoma cell line growth inhibition [RAS]
Conditions: for IC50: curve of first compound; for viability, T/C: stronger effect = lower value
Outline: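 Agents were tested in combination matrices in half-log decrements from a top concentration at or near clinical Cmax (10 microM if undetermined). Targets were multi-cell spheroids of tumour lines plus HUVEC and MSC stromal cells.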

[1] = second compound 0.00316 µM, first compound 0.0316 µM
[2] = second compound 0.00316 µM, first compound 0.1 µM
[3] = second compound 0.00316 µM, first compound 0.316 µM
[4] = second compound 0.00316 µM, first compound 1 µM
[5] = second compound 0.01 µM, first compound 0.0316 µM
[6] = second compound 0.01 µM, first compound 0.1 µM
[7] = second compound 0.01 µM, first compound 0.316 µM
[8] = second compound 0.01 µM, first compound 1 µM
[9] = second compound 0.0316 µM, first compound 0.0316 µM
[10] = second compound 0.0316 µM, first compound 0.1 µM
[11] = second compound 0.0316 µM, first compound 0.316 µM
[12] = second compound 0.0316 µM, first compound 1 µM
[13] = second compound 0.1 µM, first compound 0.0316 µM
[14] = second compound 0.1 µM, first compound 0.1 µM
[15] = second compound 0.1 µM, first compound 0.316 µM
[16] = second compound 0.1 µM, first compound 1 µM
[17] = second compound 0.316 µM, first compound 0.0316 µM
[18] = second compound 0.316 µM, first compound 0.1 µM
[19] = second compound 0.316 µM, first compound 0.316 µM
[20] = second compound 0.316 µM, first compound 1 µM
[21] = second compound 1 µM, first compound 0.0316 µM
[22] = second compound 1 µM, first compound 0.1 µM
[23] = second compound 1 µM, first compound 0.316 µM
[24] = second compound 1 µM, first compound 1 µM
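Note: spheroids exposed to the agents for 7 days before readout.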
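Throughout, for viability, T/C: luminescence viability as percent of DMSO vehicle control wells.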

Work on `CCN1CCN(Cc2ccc(Nc3ncc(F)c(-c4cc(F)c5nc(C)n(C(C)C)c5c4)n3)nc2)CC1` + C=CC(=O)N1CCN(c2nc(OCC3CCCN3C)nc3c(F)c(-c4nc(N)cc(C)c4C(F)(F)F)c(Cl)cc23)C(C)C1 yielded an IC50 (second compound 0.00316 µM) of over 1000 nM, an IC50 (second compound 0.01 µM) of over 1000 nM and an IC50 (second compound 0.0316 µM) of over 1000 nM. It also gave an IC50 (second compound 0.1 µM) of over 1000 nM, an IC50 (second compound 0.316 µM) of over 1000 nM and an IC50 (second compound 1 µM) of over 1000 nM. The viability, T/C (second compound 0.00316 µM, first compound 0.00316 µM) was 108%, the viability, T/C (second compound 0.00316 µM, first compound 0.01 µM) was 99.2% and the viability, T/C [1] was 106%. For the same compound, the viability, T/C [2] was 76%, the viability, T/C [3] was 66.9% and the viability, T/C [4] was 80.2%. The viability, T/C (second compound 0.01 µM, first compound 0.00316 µM) was 93.5%, the viability, T/C (second compound 0.01 µM, first compound 0.01 µM) was 101% and the viability, T/C [5] was 88.2%. It also gave a viability, T/C [6] of 78.3%, a viability, T/C [7] of 66.7% and a viability, T/C [8] of 71.4%. For the same compound, the viability, T/C (second compound 0.0316 µM, first compound 0.00316 µM) was 99.1%, the viability, T/C (second compound 0.0316 µM, first compound 0.01 µM) was 94.3% and the viability, T/C [9] was 96.7%. The viability, T/C [10] was 68.3%, the viability, T/C [11] was 66.9% and the viability, T/C [12] was 100%. The viability, T/C (second compound 0.1 µM, first compound 0.00316 µM) was 102%, the viability, T/C (second compound 0.1 µM, first compound 0.01 µM) was 108% and the viability, T/C [13] was 98.8%. For the same compound, the viability, T/C [14] was 70%, the viability, T/C [15] was 73.3% and the viability, T/C [16] was 82.5%. It also gave a viability, T/C (second compound 0.316 µM, first compound 0.00316 µM) of 114%, a viability, T/C (second compound 0.316 µM, first compound 0.01 µM) of 94.8% and a viability, T/C [17] of 101%. For the same compound, the viability, T/C [18] was 73%, the viability, T/C [19] was 77.9% and the viability, T/C [20] was 81.1%. The viability, T/C (second compound 1 µM, first compound 0.00316 µM) was 102%, the viability, T/C (second compound 1 µM, first compound 0.01 µM) was 108% and the viability, T/C [21] was 94.6%. The viability, T/C [22] was 70.8%, the viability, T/C [23] was 69.9% and the viability, T/C [24] was 72.9%.
For `Cc1nc(N2CCC3(CC2)COC(C)C3N)c(CO)nc1Sc1ccnc(N)c1Cl` (stereo unspecified) + C=CC(=O)N1CCN(c2nc(OCC3CCCN3C)nc3c(F)c(-c4nc(N)cc(C)c4C(F)(F)F)c(Cl)cc23)C(C)C1, the IC50 (second compound 0.00316 µM) was over 10000 nM, the IC50 (second compound 0.01 µM) was over 10000 nM and the IC50 (second compound 0.0316 µM) was over 10000 nM. The IC50 (second compound 0.1 µM) was over 10000 nM, the IC50 (second compound 0.316 µM) was over 10000 nM and the IC50 (second compound 1 µM) was over 10000 nM. It also gave a viability, T/C [1] of 111%, a viability, T/C [2] of 102% and a viability, T/C [3] of 103%. For the same compound, the viability, T/C [4] was 94.3%, the viability, T/C (second compound 0.00316 µM, first compound 3.16 µM) was 83.5% and the viability, T/C (second compound 0.00316 µM, first compound 10 µM) was 69.2%. For the same compound, the viability, T/C [5] was 110%, the viability, T/C [6] was 101% and the viability, T/C [7] was 97.5%. For the same compound, the viability, T/C [8] was 86.3%, the viability, T/C (second compound 0.01 µM, first compound 3.16 µM) was 85.9% and the viability, T/C (second compound 0.01 µM, first compound 10 µM) was 77.5%. It also gave a viability, T/C [9] of 111%, a viability, T/C [10] of 111% and a viability, T/C [11] of 99.3%. The viability, T/C [12] was 96.8%, the viability, T/C (second compound 0.0316 µM, first compound 3.16 µM) was 81.5% and the viability, T/C (second compound 0.0316 µM, first compound 10 µM) was 73.8%. It also gave a viability, T/C [13] of 117%, a viability, T/C [14] of 104% and a viability, T/C [15] of 98.4%. For the same compound, the viability, T/C [16] was 92.4%, the viability, T/C (second compound 0.1 µM, first compound 3.16 µM) was 82.4% and the viability, T/C (second compound 0.1 µM, first compound 10 µM) was 79.8%. For the same compound, the viability, T/C [17] was 111%, the viability, T/C [18] was 101% and the viability, T/C [19] was 118%. The viability, T/C [20] was 89.2%, the viability, T/C (second compound 0.316 µM, first compound 3.16 µM) was 88.5% and the viability, T/C (second compound 0.316 µM, first compound 10 µM) was 79.3%. It also gave a viability, T/C [21] of 108%, a viability, T/C [22] of 111% and a viability, T/C [23] of 101%. The viability, T/C [24] was 86.1%, the viability, T/C (second compound 1 µM, first compound 3.16 µM) was 83.1% and the viability, T/C (second compound 1 µM, first compound 10 µM) was 68%.
In the case of `CC1(C)CCC(Nc2ncc(C(F)(F)F)c(-c3c[nH]c4c(P(C)(C)=O)c(C#N)ccc34)n2)CN1` (stereo unspecified) + C#Cc1c(F)ccc2cc(O)cc(-c3ncc4c(N5CC6CCC(C5)N6)nc(OCC56CCCN5CC(F)C6)nc4c3F)c12, the IC50 (second compound 0.0316 µM) is reported as over 300 nM, the IC50 (second compound 0.1 µM) is reported as over 300 nM and the IC50 (second compound 0.316 µM) is reported as over 300 nM. For the same compound, the IC50 (second compound 1 µM) was over 300 nM, the IC50 (second compound 3.16 µM) was over 300 nM and the IC50 (second compound 10 µM) was over 300 nM. It also gave a viability, T/C (second compound 0.0316 µM, first compound 0.000949 µM) of 97%, a viability, T/C (second compound 0.0316 µM, first compound 0.003 µM) of 95.6% and a viability, T/C (second compound 0.0316 µM, first compound 0.00949 µM) of 98.5%. The viability, T/C (second compound 0.0316 µM, first compound 0.03 µM) was 92.3%, the viability, T/C (second compound 0.0316 µM, first compound 0.0949 µM) was 107% and the viability, T/C (second compound 0.0316 µM, first compound 0.3 µM) was 114%. For the same compound, the viability, T/C (second compound 0.1 µM, first compound 0.000949 µM) was 107%, the viability, T/C (second compound 0.1 µM, first compound 0.003 µM) was 85.5% and the viability, T/C (second compound 0.1 µM, first compound 0.00949 µM) was 90.4%. The viability, T/C (second compound 0.1 µM, first compound 0.03 µM) was 95.8%, the viability, T/C (second compound 0.1 µM, first compound 0.0949 µM) was 101% and the viability, T/C (second compound 0.1 µM, first compound 0.3 µM) was 99.5%. It also gave a viability, T/C (second compound 0.316 µM, first compound 0.000949 µM) of 95.7%, a viability, T/C (second compound 0.316 µM, first compound 0.003 µM) of 88.2% and a viability, T/C (second compound 0.316 µM, first compound 0.00949 µM) of 88.8%. It also gave a viability, T/C (second compound 0.316 µM, first compound 0.03 µM) of 90.2%, a viability, T/C (second compound 0.316 µM, first compound 0.0949 µM) of 97.4% and a viability, T/C (second compound 0.316 µM, first compound 0.3 µM) of 93.8%. It also gave a viability, T/C (second compound 1 µM, first compound 0.000949 µM) of 80.5%, a viability, T/C (second compound 1 µM, first compound 0.003 µM) of 89.3% and a viability, T/C (second compound 1 µM, first compound 0.00949 µM) of 83.4%. The viability, T/C (second compound 1 µM, first compound 0.03 µM) was 93.5%, the viability, T/C (second compound 1 µM, first compound 0.0949 µM) was 80.9% and the viability, T/C (second compound 1 µM, first compound 0.3 µM) was 82.9%. For the same compound, the viability, T/C (second compound 3.16 µM, first compound 0.000949 µM) was 68.4%, the viability, T/C (second compound 3.16 µM, first compound 0.003 µM) was 65.9% and the viability, T/C (second compound 3.16 µM, first compound 0.00949 µM) was 70.9%. For the same compound, the viability, T/C (second compound 3.16 µM, first compound 0.03 µM) was 74%, the viability, T/C (second compound 3.16 µM, first compound 0.0949 µM) was 61.2% and the viability, T/C (second compound 3.16 µM, first compound 0.3 µM) was 71.1%. For the same compound, the viability, T/C (second compound 10 µM, first compound 0.000949 µM) was 56.4%, the viability, T/C (second compound 10 µM, first compound 0.003 µM) was 49.7% and the viability, T/C (second compound 10 µM, first compound 0.00949 µM) was 54.8%. It also gave a viability, T/C (second compound 10 µM, first compound 0.03 µM) of 55%, a viability, T/C (second compound 10 µM, first compound 0.0949 µM) of 41.4% and a viability, T/C (second compound 10 µM, first compound 0.3 µM) of 54.3%.
